Laboratory results taken from PubChem BioAssay AID330 (DTP/NCI, 2004).
Toxic doses and inconclusive results are not listed.

System: P388 leukemia ip, CD2F1 mice, survival T/C
Test: NCI In Vivo Anticancer Drug Screen. Data for tumor model P388 Leukemia (intraperitoneal) in CD2F1 (CDF1) mice
Conditions: endpoint: median survival time, higher = longer survival
Method in brief: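 Mice carrying the transplanted tumor received test compound or vehicle. Survival was recorded in each group, and the value is the treated-group measurement divided by that of the vehicle-treated control group.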

[1] = dose: 50.0 mg/kg/injection, schedule: Q01DX009 (ip), vehicle: saline with Tween-80
[2] = dose: 100.0 mg/kg/injection, schedule: Q01DX009 (ip), vehicle: saline with Tween-80
[3] = dose: 200.0 mg/kg/injection, schedule: Q01DX009 (ip), vehicle: saline with Tween-80
[4] = dose: 100.0 mg/kg/injection, schedule: Q04DX003 (ip), vehicle: saline with Tween-80
[5] = dose: 200.0 mg/kg/injection, schedule: Q04DX003 (ip), vehicle: saline with Tween-80
[6] = dose: 60.0 mg/kg/injection, schedule: Q01DX005 (ip), vehicle: saline with Tween-80
[7] = dose: 120.0 mg/kg/injection, schedule: Q01DX005 (ip), vehicle: saline with Tween-80
[8] = dose: 240.0 mg/kg/injection, schedule: Q01DX005 (ip), vehicle: saline with Tween-80
[9] = dose: 100.0 mg/kg/injection, schedule: Q01DX001 (ip), vehicle: saline with Tween-80
[10] = dose: 200.0 mg/kg/injection, schedule: Q01DX001 (ip), vehicle: saline with Tween-80
[11] = dose: 400.0 mg/kg/injection, schedule: Q01DX001 (ip), vehicle: saline with Tween-80

SMILES: CN(Cc1ccccc1)CC(CCC1OCCO1)(CCC1OCCO1)c1ccccc1
- T/C (dose: 50.0 mg/kg/injection, schedule: Q01DX009 (ip), vehicle: Klucel (hydroxypropylcellulose) (HPC)): 96 % of control
- T/C (dose: 100.0 mg/kg/injection, schedule: Q01DX009 (ip), vehicle: Klucel (hydroxypropylcellulose) (HPC)): 91 % of control

SMILES: O=Cc1ccco1
- T/C [1]: 99 % of control
- T/C [2]: 101 % of control
- T/C [3]: 118 % of control

SMILES: COc1ccc2c(c1)CC[C@@H]1[C@@H]2CC[C@@]2(C)[C@H]1CC[C@@]2(O)C(F)=C(F)F
- T/C [4]: 88 % of control
- T/C [5]: 88 % of control

SMILES: O=C(CN1CCN(c2ccccc2)CC1)n1ccnc1
- T/C [6]: 95 % of control
- T/C [7]: 97 % of control
- T/C [8]: 100 % of control

SMILES: CCOC(=O)C(C#N)C(=N)C1CC(C)OC1=O (configuration not stated)
- T/C [6]: 100 % of control
- T/C [7]: 100 % of control
- T/C [8]: 98 % of control

SMILES: CCOc1cccc(/C=N/n2c(-c3ccccc3)nc3ccccc3c2=O)c1O
- T/C [1]: 99 % of control
- T/C [2]: 96 % of control
- T/C [3]: 105 % of control

SMILES: O=C(O)C(Cl)Cc1cnc[nH]1 (configuration not stated)
- T/C (dose: 100.0 mg/kg/injection, schedule: Q04DX003 (ip), vehicle: saline): 103 % of control
- T/C (dose: 200.0 mg/kg/injection, schedule: Q04DX003 (ip), vehicle: saline): 91 % of control
- T/C (dose: 400.0 mg/kg/injection, schedule: Q04DX003 (ip), vehicle: saline): 91 % of control

SMILES: CN1c2ccccc2S(=O)(=O)n2nnnc21
- T/C [9]: 101 % of control
- T/C [10]: 101 % of control
- T/C [11]: 97 % of control

SMILES: Cc1c2c(nn1C)CC(C)(C)OC2=O
- T/C (dose: 100.0 mg/kg/injection, schedule: Q01DX001 (ip), vehicle: Klucel (hydroxypropylcellulose) (HPC)): 95 % of control
- T/C (dose: 200.0 mg/kg/injection, schedule: Q01DX001 (ip), vehicle: Klucel (hydroxypropylcellulose) (HPC)): 100 % of control
- T/C (dose: 400.0 mg/kg/injection, schedule: Q01DX001 (ip), vehicle: Klucel (hydroxypropylcellulose) (HPC)): 101 % of control

SMILES: CCOC(=O)C(CCc1ccccn1)C(C)=O (configuration not stated)
- T/C [6]: 94 % of control
- T/C [7]: 98 % of control
- T/C [8]: 98 % of control

SMILES: CCOC(=O)CCCCCCNC(=S)N1c2c(nc(N)[nH]c2=O)NCC1CNc1ccc(C(=O)NC(CCC(=O)O)C(=O)O)cc1 (configuration not stated)
- T/C (dose: 50.0 mg/kg/injection, schedule: Q01DX001 (ip), vehicle: sodium bicarbonate): 100 % of control
- T/C (dose: 100.0 mg/kg/injection, schedule: Q01DX001 (ip), vehicle: sodium bicarbonate): 100 % of control
- T/C (dose: 200.0 mg/kg/injection, schedule: Q01DX001 (ip), vehicle: sodium bicarbonate): 98 % of control

SMILES: CCOc1ccc(-n2c(=O)c(N=Nc3ccccc3Cl)c(O)n(-c3ccc(Br)cc3)c2=S)cc1
- T/C (dose: 100.0 mg/kg/injection, schedule: Q04DX002 (ip), vehicle: saline with Tween-80): 90 % of control
- T/C (dose: 200.0 mg/kg/injection, schedule: Q04DX002 (ip), vehicle: saline with Tween-80): 94 % of control
- T/C (dose: 400.0 mg/kg/injection, schedule: Q04DX002 (ip), vehicle: saline with Tween-80): 87 % of control

SMILES: CN1C2CCCC1CC1(C2)NC(=O)NC1=O (configuration not stated)
- T/C (dose: 50.0 mg/kg/injection, schedule: Q01DX009 (ip), vehicle: water): 99 % of control
- T/C (dose: 100.0 mg/kg/injection, schedule: Q01DX009 (ip), vehicle: water): 100 % of control

SMILES: COc1cc2c(c(OC(C)=O)c1OC)-c1ccc(OC)c(=O)cc1[C@@H](NC(C)=O)CC2
- T/C (dose: 1.25 mg/kg/injection, schedule: Q01DX009 (ip), vehicle: Klucel (hydroxypropylcellulose) (HPC)): 94 % of control
- T/C (dose: 2.5 mg/kg/injection, schedule: Q01DX009 (ip), vehicle: Klucel (hydroxypropylcellulose) (HPC)): 92 % of control
- T/C (dose: 5.0 mg/kg/injection, schedule: Q01DX009 (ip), vehicle: Klucel (hydroxypropylcellulose) (HPC)): 100 % of control
- T/C (dose: 10.0 mg/kg/injection, schedule: Q01DX009 (ip), vehicle: Klucel (hydroxypropylcellulose) (HPC)): 100 % of control
- T/C (dose: 20.0 mg/kg/injection, schedule: Q01DX009 (ip), vehicle: Klucel (hydroxypropylcellulose) (HPC)): 109 % of control

SMILES: O=C1Cc2[nH]ccc2C(=O)O1
- T/C [9]: 99 % of control
- T/C [10]: 90 % of control
- T/C [11]: 107 % of control

SMILES: CC(C)(C)c1ccc(C(=O)N2CCOC23CCCCC3)cc1
- T/C (dose: 50.0 mg/kg/injection, schedule: Q01DX005 (ip), vehicle: Klucel (hydroxypropylcellulose) (HPC)): 105 % of control
- T/C (dose: 100.0 mg/kg/injection, schedule: Q01DX005 (ip), vehicle: Klucel (hydroxypropylcellulose) (HPC)): 96 % of control
- T/C (dose: 200.0 mg/kg/injection, schedule: Q01DX005 (ip), vehicle: Klucel (hydroxypropylcellulose) (HPC)): 96 % of control

SMILES: Cc1cc(C#N)c[n+](C)c1
- T/C (dose: 60.0 mg/kg/injection, schedule: Q01DX005 (ip), vehicle: saline): 108 % of control
- T/C (dose: 120.0 mg/kg/injection, schedule: Q01DX005 (ip), vehicle: saline): 95 % of control

SMILES: CSCCC(N)[P+](=O)O (configuration not stated)
- T/C (dose: 50.0 mg/kg/injection, schedule: Q01DX005 (ip), vehicle: saline): 99 % of control
- T/C (dose: 100.0 mg/kg/injection, schedule: Q01DX005 (ip), vehicle: saline): 95 % of control
- T/C (dose: 200.0 mg/kg/injection, schedule: Q01DX005 (ip), vehicle: saline): 99 % of control

SMILES: CCCCCCC1([N+](=O)[O-])CN(C)CC2CCCCN2C1 (configuration not stated)
- T/C (dose: 100.0 mg/kg/injection, schedule: Q04DX002 (ip), vehicle: saline): 109 % of control
- T/C (dose: 200.0 mg/kg/injection, schedule: Q04DX002 (ip), vehicle: saline): 97 % of control

SMILES: CC(C)(C)N1C(=O)[N+]2(CCCCC2)N=C1[O-]
- T/C [4]: 93 % of control
- T/C [5]: 99 % of control
- T/C (dose: 400.0 mg/kg/injection, schedule: Q04DX003 (ip), vehicle: saline with Tween-80): 86 % of control

SMILES: CC1NCC23CCC4C(CC=C5CC(O)CCC54C)C2CCC13 (configuration not stated)
- T/C (dose: 25.0 mg/kg/injection, schedule: Q01DX009 (ip), vehicle: saline with Tween-80): 90 % of control
- T/C [1]: 87 % of control
- T/C [2]: 94 % of control

SMILES: C=C(C)C1CC=C(C)C(CCC2C(=C)CCC3C(C)(C)C(OC4OC(CO)C(O)C(O)C4NC(C)=O)CCC23C)C1(C)CCC(=O)O (configuration not stated)
- T/C (dose: 35.75 mg/kg/injection, schedule: Q01DX005 (ip), vehicle: Klucel (hydroxypropylcellulose) (HPC)): 91 % of control
- T/C (dose: 71.5 mg/kg/injection, schedule: Q01DX005 (ip), vehicle: Klucel (hydroxypropylcellulose) (HPC)): 87 % of control
- T/C (dose: 143.0 mg/kg/injection, schedule: Q01DX005 (ip), vehicle: Klucel (hydroxypropylcellulose) (HPC)): 97 % of control

SMILES: COc1cc([C@@H]2c3cc4c(cc3[C@H](O)[C@H]3COC(=O)[C@@H]23)OCO4)cc(OC)c1OC
- T/C (dose: 7.5 mg/kg/injection, schedule: Q01DX010 (ip), vehicle: saline): 109 % of control
- T/C (dose: 25.0 mg/kg/injection, schedule: Q04DX003 (ip), vehicle: saline sonified): 95 % of control
- T/C (dose: 30.0 mg/kg/injection, schedule: Q01DX010 (ip), vehicle: saline): 172 % of control
- T/C (dose: 50.0 mg/kg/injection, schedule: Q04DX003 (ip), vehicle: saline sonified): 112 % of control
- T/C (dose: 100.0 mg/kg/injection, schedule: Q04DX003 (ip), vehicle: saline sonified): 154 % of control

SMILES: c1ccc(Nc2ccc(CN3CCCC3)cc2)cc1
- T/C (dose: 60.0 mg/kg/injection, schedule: Q01DX005 (ip), vehicle: Klucel (hydroxypropylcellulose) (HPC)): 107 % of control
- T/C (dose: 120.0 mg/kg/injection, schedule: Q01DX005 (ip), vehicle: Klucel (hydroxypropylcellulose) (HPC)): 107 % of control
- T/C (dose: 240.0 mg/kg/injection, schedule: Q01DX005 (ip), vehicle: Klucel (hydroxypropylcellulose) (HPC)): 107 % of control

SMILES: [O]=[Ge]=[O]
- T/C (dose: 50.0 mg/kg/injection, schedule: Q01DX009 (ip), vehicle: saline): 111 % of control
- T/C (dose: 100.0 mg/kg/injection, schedule: Q01DX009 (ip), vehicle: saline): 104 % of control
- T/C (dose: 200.0 mg/kg/injection, schedule: Q01DX009 (ip), vehicle: saline): 111 % of control

SMILES: Cc1c(-c2ccccc2)oc(=O)c(Cl)c1N(C)C
- T/C (dose: 50.0 mg/kg/injection, schedule: Q01DX005 (ip), vehicle: saline with Tween-80): 102 % of control
- T/C (dose: 100.0 mg/kg/injection, schedule: Q01DX005 (ip), vehicle: saline with Tween-80): 100 % of control
- T/C (dose: 200.0 mg/kg/injection, schedule: Q01DX005 (ip), vehicle: saline with Tween-80): 100 % of control
